Data reported in US20060148858A1, “1, 2-Azole derivatives with hypoglycemic and hypolipidemic activity” (priority 2002, published 2006).

SMILES	melting point [°C]
CCCc1nn(-c2ccc(C(F)(F)F)cn2)cc1CCCCOc1nn(C)cc1CC(=O)O [Example 61, [1-methyl-3-(4-{3-propyl-1-[5-(trifluoromethyl)-2-pyridinyl]-1H-pyrazol-4-yl}butoxy)-1H-pyrazol-4-yl]acetic acid]	95 to 97
CCCc1nn(-c2ccc(C(F)(F)F)cn2)cc1CCCCOc1ccc(CCC(=O)O)c(C)c1 [Example 64, 3-[2-methyl-4-(4-{3-propyl-1-[5-(trifluoromethyl)-2-pyridinyl]-1H-pyrazol-4-yl}butoxy)phenyl]propanoic acid]	105 to 107
CCCc1nn(-c2ccc(C(F)(F)F)cn2)cc1CCCCOc1nn(-c2ccccc2)cc1CC(=O)O [Example 66, [1-phenyl-3-(4-{3-propyl-1-[5-(trifluoromethyl)-2-pyridinyl]-1H-pyrazol-4-yl}butoxy)-1H-pyrazol-4-yl]acetic acid]	114 to 115
CCCc1nn(-c2ccc(C(F)(F)F)cn2)cc1CCCOc1nn(-c2ccccc2)cc1CC(=O)O [Example 67, [1-phenyl-3-(3-{3-propyl-1-[5-(trifluoromethyl)-2-pyridinyl]-1H-pyrazol-4-yl}propoxy)-1H-pyrazol-4-yl]acetic acid]	123 to 124
CC(C)c1nn(-c2ccc(C(F)(F)F)cn2)cc1CCCCOc1nn(-c2ccccc2)cc1CC(=O)O [Example 68, [3-(4-{3-isopropyl-1-[5-(trifluoromethyl)-2-pyridinyl]-1H-pyrazol-4-yl}butoxy)-1-phenyl-1H-pyrazol-4-yl]acetic acid]	119 to 120
COc1cc(OCCCCc2cn(-c3ccc(C(F)(F)F)cn3)nc2C(C)C)ccc1CCC(=O)O [Example 69, 3-[4-(4-{3-isopropyl-1-[5-(trifluoromethyl)-2-pyridinyl]-1H-pyrazol-4-yl}butoxy)-2-methoxyphenyl]propanoic acid]	125 to 126
CCCc1nn(-c2ccc(C(F)(F)F)cn2)cc1CCCCOc1cc(CCC(=O)O)n(C)n1 [Example 70, 3-[1-methyl-3-(4-{3-propyl-1-[5-(trifluoromethyl)-2-pyridinyl]-1H-pyrazol-4-yl}butoxy)-1H-pyrazol-5-yl]propanoic acid]	122 to 123
O=C(O)CCc1cc(OCCCc2cn(-c3ccc(C(F)(F)F)cn3)nc2OCc2ccccc2)nn1-c1ccccc1 [Example 71, 3-[3-(3-{3-(benzyloxy)-1-[5-(trifluoromethyl)-2-pyridinyl]-1H-pyrazol-4-yl}propoxy)-1-phenyl-1H-pyrazol-5-yl]propanoic acid]	159 to 161
CCOc1nn(-c2ccc(C(F)(F)F)cn2)cc1CCOc1ccc(CC(=O)O)cc1 [Example 73, [4-(2-{3-ethoxy-1-[5-(trifluoromethyl)-2-pyridinyl]-1H-pyrazol-4-yl}ethoxy)phenyl]acetic acid]	142 to 143
CCOc1nn(-c2ccc(C(F)(F)F)cn2)cc1CCOc1cccc(OC(C)(C)C(=O)O)c1 [Example 74, 2-[3-(2-{3-ethoxy-1-[5-(trifluoromethyl)-2-pyridinyl]-1H-pyrazol-4-yl}ethoxy)phenoxy]-2-methylpropanoic acid]	89 to 90
CCCc1nn(-c2ccc(C(F)(F)F)cn2)cc1CCCCn1cc(CCC(=O)[O-])c(OCC)n1.[Na+] [Example 78, sodium 3-[3-ethoxy-1-(4-{3-propyl-1-[5-(trifluoromethyl)-2-pyridinyl]-1H-pyrazol-4-yl}butyl)-1H-pyrazol-4-yl]propanoate]	250 to 251
CCCc1nn(-c2ccc(C(F)(F)F)cn2)cc1CCCOc1ccc(CC(=O)O)cc1OC [Example 79, [3-methoxy-4-(3-{3-propyl-1-[5-(trifluoromethyl)-2-pyridyl]-1H-pyrazol-4-yl}propoxy)phenyl]acetic acid]	121 to 122
CCCc1nn(-c2ccc(C(F)(F)F)cn2)cc1CCCOc1cc(CC(=O)O)ccc1OC [Example 80, [4-methoxy-3-(3-{3-propyl-1-[5-(trifluoromethyl)-2-pyridinyl]-1H-pyrazol-4-yl}propoxy)phenyl]acetic acid]	124 to 126
CCCc1nn(-c2ccc(C(F)(F)F)cn2)cc1CCCOc1ccc(OC)c(CCC(=O)O)c1 [Example 81, 3-[2-methoxy-5-(3-{3-propyl-1-[5-(trifluoromethyl)-2-pyridinyl]-1H-pyrazol-4-yl}propoxy)phenyl]propanoic acid]	104 to 106
CCCc1nn(-c2ccc(C(F)(F)F)cn2)cc1CCCOc1ccc(CCC(=O)O)cc1 [Example 82, 3-[4-(3-{3-propyl-1-[5-(trifluoromethyl)-2-pyridyl]-1H-pyrazol-4-yl}propoxy)phenyl]propionic acid]	118 to 119
CCCc1nn(-c2ccc(C(F)(F)F)cn2)cc1CCCOc1ccccc1CCC(=O)O [Example 83, 3-[2-(3-{3-propyl-1-[5-(trifluoromethyl)-2-pyridyl]-1H-pyrazol-4-yl}propoxy)phenyl]propionic acid]	87 to 88
CCCc1nn(-c2ccc(C(F)(F)F)cn2)cc1CCCOc1cccc(CCC(=O)O)c1 [Example 84, 3-[3-(3-{3-propyl-1-[5-(trifluoromethyl)-2-pyridyl]-1H-pyrazol-4-yl}propoxy)phenyl]propionic acid]	97 to 98
CCCc1nn(-c2ccc(C(F)(F)F)cn2)cc1CCCOc1nn(C)cc1CC(=O)O [Example 87, [1-methyl-3-(3-{3-propyl-1-[5-(trifluoromethyl)-2-pyridyl]-1H-pyrazol-4-yl}propoxy)-1H-pyrazol-4-yl]acetic acid]	119 to 120
CCCc1nn(-c2ccc(C(F)(F)F)cn2)cc1CCCCOc1ccc(CC(=O)O)cc1 [Example 88, [4-(4-{3-propyl-1-[5-(trifluoromethyl)-2-pyridyl]-1H-pyrazol-4-yl}butoxy)phenyl]acetic acid]	121 to 122
CCCc1nn(-c2ccc(C(F)(F)F)cn2)cc1CCCCOc1ccc(CCC(=O)O)c(OC)c1 [Example 89, 3-[2-methoxy-4-(4-{3-propyl-1-[5-(trifluoromethyl)-2-pyridyl]-1H-pyrazol-4-yl}butoxy)phenyl]propionic acid]	91 to 92
CCCc1nn(-c2ccc(C(F)(F)F)cn2)cc1CCCOc1ccc(F)c(CC(=O)O)c1 [Example 90, [2-fluoro-5-(3-{3-propyl-1-[5-(trifluoromethyl)-2-pyridyl]-1H-pyrazol-4-yl}propoxy)phenyl]acetic acid]	111 to 112
CCCc1nn(-c2ccc(C(F)(F)F)cn2)cc1CCCOc1cc(CCC(=O)O)ccc1OC [Example 93, 3-[4-methoxy-3-(3-{3-propyl-1-[5-(trifluoromethyl)-2-pyridyl]-1H-pyrazol-4-yl}propoxy)phenyl]propionic acid]	147 to 148
CCCc1nn(-c2ccc(C(F)(F)F)cn2)cc1CCCOc1ccc(CC(=O)O)c(OC)c1 [Example 95, [2-methoxy-4-(3-{3-propyl-1-[5-(trifluoromethyl)-2-pyridyl]-1H-pyrazol-4-yl}propoxy)phenyl]acetic acid]	135 to 136
CCCc1nn(-c2ccc(C(F)(F)F)cn2)cc1CCCOc1ccc(OC)c(CC(=O)O)c1 [Example 97, [2-methoxy-5-(3-{3-propyl-1-[5-(trifluoromethyl)-2-pyridinyl]-1H-pyrazol-4-yl}propoxy)phenyl]acetic acid]	135 to 136
